Assay results published in patent publication US20060134239A1, “Agents against microorganisms containing patchouli oil, patchouli alcohol and/or the derivatives thereof” (priority 2003, published 2006).

Tests used:
Type in all cases: cell-based
[1] = test system: Aspergillus niger (DSM 1988); test: Sporulation of Aspergillus niger on a filter surface after 2 applications (Example 4); conditions: for Sporulation [%]: 3 days at 25° C.
Experimental: Effect of Patchouli Oil on the Sporulation of Aspergillus niger on a Filter Surface after 2 Applications
Filter papers (2×2 cm) were disinfected and treated twice with a 1 hour interval with 50 μl of active-component solutions (in ethanol) differing in concentration. The test specimens were then dried. The test specimens were then placed on wort agar plates and the surface of the wort agar plates was contaminated with 100 μl of a germ suspension (10^3 CFU/ml) of Aspergillus niger (DSM 1988). The plates were incubated for 3 days at 25° C. Sporulation was visually evaluated and the sporulation rate in [%] was determined. […] Sporulation was inhibited by increasing concentrations of eugenol and was 95% suppressed at 90 μm.

[2] = test system: Aspergillus niger, DSM 1988; test: Sporulation of Aspergillus niger on the surface of an acetate silicone jointing compound (Example 3); conditions: for Sporulation [%]: control series
Experimental: Effect on Patchouli Oil on the Sporulation of Aspergillus niger on the Surface of an Acetate Jointing Compound
Commercially available, but preservative-free, one-component silicone jointing compounds curing at room temperature (acetate system, cured 2.2×2.2×0.3 cm pieces of film) were disinfected with 70% EtOH (ethanol) and placed for 24 h in active component solutions with various concentrations. The test specimens were then re-washed twice with EtOH, rinsed with distilled water (sterile) and dried for 24 h. The test specimens were weighed before and after this treatment and the quantity of active component in the test specimens was thus determined together with the concentration of the active component solution. The test specimens were then placed on wort agar plates and thinly coated with agar in which fungal spores had been incorporated (10^5 CFU/ml Aspergillus niger, DSM 1988). The plates were incubated for 3 days at 25° C. Sporulation was visually evaluated from the test specimens and the sporulation rate in [%] was determined.

[3] = test system: Aspergillus niger (DSM 1988); test: Sporulation of Aspergillus niger on wort agar plates with active component in the agar (Example 1); conditions: control series
Experimental: Effect of Patchouli Oil on the Sporulation of Aspergillus niger
(§1) Contamination of the surface of wort agar plates with 100 μl of a germ suspension (10^3 CFU/ml) of Aspergillus niger (DSM 1988). Various quantities of active component (dissolved in ethanol, for final concentrations see Table 1) were added to the agar plates beforehand. The plates were incubated for 3 days at 25° C. Sporulation was visually evaluated and the sporulation rate in [%] was determined.
Active component: patchouli oil obtained by steam distillation (mixture of patchouli oil from Kaders, Sensient, Polarome and Nitsche)

[4] = test system: Aspergillus niger (DSM 1988); test: Sporulation of Aspergillus niger on wort agar plates, patchouli alcohol (Example 2)
Experimental: Effect of Patchouli Alcohol on the Sporulation of Aspergillus niger
as §1, with “component (solutions” for “component (dissolved”, “Table 2)” for “Table 1)”, “for 5” for “for 3”, “determined. […] Sporulation was inhibited with increasing concentrations and was 95% suppressed at 450 μm.” for “determined.”

`C=CCc1ccc(O)c(OC)c1` [eugenol] was tested, and the “Suppression of sporulation” value ([1]; at 90 μm) was 95% and the “Suppression of sporulation” value ([2]; at 9 μm/g jointing compound) was “completely suppressed”.
For `CC(C)=CCCC(C)=CCCC(C)=CCO` [farnesol], the “Inhibition of sporulation compared with identical concentrations of patchouli oil” value ([1]; second, parallel test series on filter paper) was “inhibited, but to a lesser extent”, the “Sporulation [%]” value ([1]; solution concentration 0.5 μm, filter paper treated twice with 50 μl) was 100% and the “Sporulation [%]” value ([1]; solution concentration 5 μm, filter paper treated twice) was 100%. For the same compound, the “Sporulation [%]” value ([1]; solution concentration 25 μm, filter paper treated twice) was 100%, the “Sporulation [%]” value ([1]; solution concentration 35 μm, filter paper treated twice) was 60% and the “Sporulation [%]” value ([1]; solution concentration 50 μm, filter paper treated twice) was 80%. The “Sporulation [%]” value ([1]; solution concentration 70 μm, filter paper treated twice) was 50%, the “Sporulation [%]” value ([1]; solution concentration 90 μm, filter paper treated twice) was 40% and the “Sporulation [%]” value ([3]; concentration 25 μm in wort agar) was 90%. For the same compound, the “Sporulation [%]” value ([3]; concentration 62.5 μm in wort agar) was 75%, the “Sporulation [%]” value ([3]; concentration 125 μm in wort agar) was 50% and the “Sporulation [%]” value ([3]; concentration 250 μm in wort agar) was 10%. For the same compound, the “Sporulation [%]” value ([3]; concentration 500 μm in wort agar) was 0%, the “Sporulation [%]” value ([2]; 0.4 μm/g jointing compound) was 100% and the “Sporulation [%]” value ([2]; 1.1 μm/g jointing compound) was 100%. For the same compound, the “Sporulation [%]” value ([2]; 17 μm/g jointing compound) was 30% and the “Inhibition of sporulation compared with identical concentrations of patchouli oil” value ([2]; parallel test series on jointing compound) was “inhibited, but to a far lesser extent”.
With `C[C@H]1CC[C@@]2(O)C(C)(C)[C@@H]3CC[C@@]2(C)[C@H]1C3` [patchouli alcohol, Patchouli alcohol] the “Inhibition of growth of the test strain” value ([4]; all concentrations used (up to 450 μm)) was “None of the active component concentrations used inhibited the growth”, the “Suppression of sporulation” value ([4]; at 450 μm, 5 days at 25° C.) was 95% and the “Sporulation [%]” value ([4]; concentration 225 μm in wort agar, 5 days at 25° C.) was 95%. For the same compound, the “Sporulation [%]” value ([4]; concentration 450 μm in wort agar, 5 days at 25° C.) was 5%.
